Measurements reported in patent publication US11559538B2, “Substituted 1,2-oxaborolan-2-ols as PDE4 inhibitors” (Pfizer Inc., priority 2018, dated 2023).
Where two headings read alike, the source gives them in different places.

Tests used:
[1] = tested on: IL-4; experiment: Cytokine assay: IL-4 release from PHA-L stimulated human PBMCs; assay type: cell-based; settings: read-out: IL4 IC50
Protocol: (§1) Cytokine inhibitory activity is determined by measuring the effect of test agent on the release of the cytokines IL-4, IL-13 and IFNγ from human peripheral blood mononuclear cells (PBMCs) stimulated with the T-cell mitogen phytohemagglutinin-L (PHA-L). At the time of assay, human PBMCs (Astarte Biologics) are removed from cryopreservation, thawed quickly at 37° C., diluted in assay medium (RPMI-Gibco 1640 medium, 10% heat inactivated fetal bovine serum (HIFBS), 2 mM glutamine and 10 mM HEPES pH 7.4) and then centrifuged at 250×g for 5 minutes. The resulting cell pellet is re-suspended in assay medium to a concentration of approximately 5×10^6 cells/mL and 50 μL of this cell suspension (approximately 250,000 cells) is added to each well of a 384-well cell culture microtiter plate (Perkin Elmer). Varying concentrations of test compound are then diluted in assay medium and added to the assay plate wells in a volume of 25 μL. After −10 minutes at room temperature (21° C.) the cells are stimulated by the addition of 25 μL of PHA-L (14 μg/mL; Millipore) and the assay plate is placed in an incubator at 37° C. in a humidified environment in 5% carbon dioxide. The final assay conditions are approximately 250,000 human PBMCs per well in assay medium containing 3.5 μg/mL PHA-L and the indicated final concentration of test compound (approximately 10 μM to […] by 4-fold dilution). The final concentration of DMSO in the assay is approximately 0.25%. After 48 hours, the assay plate is removed from the incubator and centrifuged at 250×g for 5 minutes. A portion of the resulting cell supernatant is then used to determine the amount of IL-4, IL-13 and IFNγ in each well. Cytokine measurements are made using human IL-4, IL-13 or IFNγ HTRF assay kits (CisBio) following the manufacturer's assay protocol. The concentrations and resulting effect values for tested compounds are plotted and the concentration of compound required for 50% effect (IC50) is determined with a four-parameter logistic dose response equation (E-WorkBook, ID Business Solutions Ltd.) and shown in Table 17.

[2] = tested on: IFNγ; experiment: Cytokine assay: IFNγ release from PHA-L stimulated human PBMCs; assay type: cell-based
Protocol: as §1

[3] = tested on: IL-13; experiment: Cytokine assay: IL-13 release from PHA-L stimulated human PBMCs; assay type: cell-based; settings: read-out: IL13 IC50
Protocol: as §1

[4] = target: PDE4B (aa 152-484, Uniprot ID Q07343) (Homo sapiens (Human), UniProt Q07343); experiment: PDE4 SPA assay (scintillation proximity assay); assay type: biochemical; settings: read-out: PDE4B2 IC50
Sequence of PDE4B (aa 152-484, Uniprot ID Q07343) (Q07343 324-656): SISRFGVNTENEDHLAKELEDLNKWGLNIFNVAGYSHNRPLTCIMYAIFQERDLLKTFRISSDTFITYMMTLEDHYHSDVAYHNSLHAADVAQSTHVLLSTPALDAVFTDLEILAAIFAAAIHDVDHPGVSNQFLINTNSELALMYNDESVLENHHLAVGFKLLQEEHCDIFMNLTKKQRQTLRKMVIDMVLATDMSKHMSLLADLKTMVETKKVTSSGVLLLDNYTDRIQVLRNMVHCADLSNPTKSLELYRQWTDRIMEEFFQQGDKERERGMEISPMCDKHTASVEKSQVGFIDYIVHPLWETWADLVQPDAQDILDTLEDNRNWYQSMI
Protocol: Phosphodiesterase (PDE) activity is determined by measuring the effect of a test agent on the activity of the PDE4B enzyme in a scintillation proximity assay (SPA). At the time of assay, approximately 30 μL of PDE4B (aa 152-484, Uniprot ID Q07343) in 50 mM Tris pH 7.5, 1.3 mM MgC2, 0.004% Brij 35 is added to a 384 well white clear bottom polystyrene plate (Corning) containing 1 μL of varying concentrations of test compound. After −10 minutes at room temperature (RT; 21° C.), the assay is initiated by the addition of 20 μL of a mixture of ^3H-labeled (adenosine 3′, 5′-cyclic phosphate, ammonium salt, [2,8-^3H]; Perkin Elmer) and unlabeled cAMP. The final assay conditions are approximately 81.6 pM PDE4B in 50 mM Tris pH 7.5, 1.3 mM MgCl2, 0.004% Brij 35, 1 μM ^3H-labeled/unlabeled cAMP (1425 dpm/pmol) and the indicated final concentration of test compound (approximately 10 μM to […] by 4-fold dilution). The final concentration of DMSO in the assay is approximately 2.0%. After 30 minutes at RT, the assay is terminated by the addition of approximately 20 μL of an aqueous solution of PDE YSI SPA beads (8 mg/mL in water; Perkin Elmer). The beads are allowed to settle for at least 2 hours and the plate is then counted on a MicroBeta2 (Perkin Elmer). The concentrations and resulting effect values for the tested compound are plotted and the concentration of compound required for 50% effect (IC50) is determined with a four-parameter logistic dose response equation (E-WorkBook, ID Business Solutions Ltd.) and shown in Table 17.

Row | IC50 [1] [nM] | IC50 [2] [nM] | IC50 [3] [nM] | IC50 [4] [nM] | IC50 ([1]; Homo sapiens, PBMC) [nM] | IC50 ([2]; Homo sapiens, PBMC) [nM] | IC50 ([3]; Homo sapiens, PBMC) [nM] | Structure (SMILES)
1 | 99.9 | 12.6 | 759 | 4.02 |  |  |  | COc1ccc(-c2cccc(C3COB(O)C3)n2)cc1OC1CCCC1 (single isomer, unassigned) [Example 67, 4-(6-(3-(cyclopentyloxy)-4-methoxyphenyl)pyridin-2-yl)-1,2-oxaborolan-2-ol]
2 |  |  |  | 3.04 | 10.9 | 2.71 | 768 | CCOc1c(OC)ccc(-c2cncc(C3COB(O)C3)c2)c1F (single isomer, unassigned) [Example 74, 4-(5-(3-ethoxy-2-fluoro-4-methoxyphenyl)pyridin-3-yl)-1,2-oxaborolan-2-ol]
3 |  |  |  | 0.29 | 0.9 | 0.56 | 541 | CCCOc1cc(-c2cncc(C3COB(O)C3)c2C)ccc1OC (single isomer, unassigned) [Example 85, 4-(5-(4-methoxy-3-propoxyphenyl)-4-methylpyridin-3-yl)-1,2-oxaborolan-2-ol]
4 |  |  |  | 5.03 | 19.1 | 3.02 | 444 | CCCOc1c(OC)ccc(-c2cccc(C3COB(O)C3)n2)c1C#N (single isomer, unassigned) [Example 87, 6-(6-(2-hydroxy-1,2-oxaborolan-4-yl)pyridin-2-yl)-3-methoxy-2-propoxybenzonitrile]
5 | 26.4 | 3.5 | 449 | 1.21 |  |  |  | CCCOc1cc(-c2cccc(C3COB(O)C3)c2)ccc1OC (single isomer, unassigned) [Example 89, 4-(4′-methoxy-3′-propoxy-[1,1′-biphenyl]-3-yl)-1,2-oxaborolan-2-ol]
6 | 290 | 13.7 | 2790 | 4.33 |  |  |  | CCCOc1cc(-c2cccc(C3COB(O)C3)c2)ccc1OC (single isomer, unassigned) [Example 90, 4-(4′-methoxy-3′-propoxy-[1,1′-biphenyl]-3-yl)-1,2-oxaborolan-2-ol]
7 |  |  |  | 1.79 | 3.36 | 2.7 | 947 | CCOc1cc(-c2nc(C3COB(O)C3)cs2)c(F)cc1OC (single isomer, unassigned) [Example 92, 4-(2-(5-ethoxy-2-fluoro-4-methoxyphenyl)thiazol-4-yl)-1,2-oxaborolan-2-ol]
8 |  |  |  | 4.87 | 7.36 | 2.87 | 461 | CCOc1c(OC)ccc(-c2cncc(C3COB(O)C3)c2)c1C(F)(F)F (single isomer, unassigned) [Example 95, 4-(5-(3-ethoxy-4-methoxy-2-(trifluoromethyl)phenyl)pyridin-3-yl)-1,2-oxaborolan-2-ol]
9 | 219 | 2.67 | 2800 | 1.13 |  |  |  | CCOc1ccc(-c2cncc(C3COB(O)C3)c2)cc1OCC (single isomer, unassigned) [Example 98, 4-(5-(3,4-diethoxyphenyl)pyridin-3-yl)-1,2-oxaborolan-2-ol]
10 |  |  | 490 | 3.2 | 14.2 | 5.46 |  | CCCOc1cc(-c2cncc(C3COB(O)C3)c2)ccc1OCC (single isomer, unassigned) [Example 105, 4-(5-(4-ethoxy-3-propoxyphenyl)pyridin-3-yl)-1,2-oxaborolan-2-ol]
11 | 16.1 | 3.42 | 2080 | 1.83 |  |  |  | CCCOc1cc(-c2cncc(C3COB(O)C3)c2)ccc1OCC (single isomer, unassigned) [Example 106, 4-(5-(4-ethoxy-3-propoxyphenyl)pyridin-3-yl)-1,2-oxaborolan-2-ol]
12 |  |  |  | 0.97 | 3.01 | 2.95 | 496 | CCCOc1cc(-c2cncc(C3COB(O)C3)c2)c(F)cc1OC (single isomer, unassigned) [Example 111, 4-(5-(2-fluoro-4-methoxy-5-propoxyphenyl)pyridin-3-yl)-1,2-oxaborolan-2-ol]
13 |  |  |  | 0.72 | 5.74 | 7.34 | 1190 | CCOc1cc(-c2cncc(C3COB(O)C3)c2)cc(C#N)c1OC (single isomer, unassigned) [Example 119, 3-ethoxy-5-(5-(2-hydroxy-1,2-oxaborolan-4-yl)pyridin-3-yl)-2-methoxybenzonitrile]
14 |  |  |  | 3.11 | 34.1 | 3.58 | 1640 | COc1cnc(-c2cccc(C3COB(O)C3)c2)nc1OC (single isomer, unassigned) [Example 123, 4-(3-(4,5-dimethoxypyrimidin-2-yl)phenyl)-1,2-oxaborolan-2-ol]
15 |  |  |  | 0.85 | 7.21 | 0.79 | 680 | COc1ccc(-c2cncc(C3COB(O)C3)n2)cc1OC1CCCC1 (single isomer, unassigned) [Example 126, 4-(6-(3-(cyclopentyloxy)-4-methoxyphenyl)pyrazin-2-yl)-1,2-oxaborolan-2-ol]
16 |  |  |  | 5.74 | 53.1 | 2.25 | 667 | CCCOc1cc(-c2cccc(C3COB(O)C3)n2)ccc1OC (single isomer, unassigned) [Example 128, 4-(6-(4-methoxy-3-propoxyphenyl)pyridin-2-yl)-1,2-oxaborolan-2-ol]
17 | 0.78 | 0.4 | 788 | 0.25 |  |  |  | CCOc1cc(-c2cncc(C3COB(O)C3)c2C(F)F)ccc1OC (single isomer, unassigned) [Example 139, 4-(4-(difluoromethyl)-5-(3-ethoxy-4-methoxyphenyl)pyridin-3-yl)-1,2-oxaborolan-2-ol]
18 | 3.47 | 3.2 | 3450 | 2.7 |  |  |  | CCOc1cc(-c2cncc(C3COB(O)C3)c2C(F)F)ccc1OC (single isomer, unassigned) [Example 140, 4-(4-(difluoromethyl)-5-(3-ethoxy-4-methoxyphenyl)pyridin-3-yl)-1,2-oxaborolan-2-ol]
19 |  |  |  | 2.53 | 4.5 | 2.04 | 1040 | CCOc1cc(-c2cncc(C3COB(O)C3)c2C)c(F)cc1OC (single isomer, unassigned) [Example 142, 4-(5-(5-ethoxy-2-fluoro-4-methoxyphenyl)-4-methylpyridin-3-yl)-1,2-oxaborolan-2-ol]
20 | 4.11 | 3.68 | 1160 | 2.71 |  |  |  | CCOc1cc(-c2cncc(C3COB(O)C3)c2C)c(F)cc1OC (single isomer, unassigned) [Example 143, 4-(5-(5-ethoxy-2-fluoro-4-methoxyphenyl)-4-methylpyridin-3-yl)-1,2-oxaborolan-2-ol]
21 |  |  |  | 1.21 | 24.4 | 23.8 | 757 | CCCOc1cccc(-c2cncc(C3COB(O)C3)c2)c1 (single isomer, unassigned) [Example 146, 4-(5-(3-propoxyphenyl)pyridin-3-yl)-1,2-oxaborolan-2-ol]
22 | 2.39 | 1.62 | 438 | 6.92 |  |  |  | CCOc1c(OC)ccc(-c2cncc(C3COB(O)C3)c2)c1C(F)F (single isomer, unassigned; (-)) [Example 10, (−) 4-(5-(2-(difluoromethyl)-3-ethoxy-4-methoxyphenyl)pyridin-3-yl)-1,2-oxaborolan-2-ol]
